Measured values reported in ChEMBL document CHEMBL4184249, “Structural development of tetrachlorophthalimides as liver X receptor β (LXRβ)-selective agonists with improved aqueous solubility” (Bioorg Med Chem Lett, 2018).
Active and inactive are the calls of the source. The rule behind the calls is not given here.

Tests used:
Assay type in all cases: cell-based
[1] = target: T1, Oxysterols receptor LXR-beta (Homo sapiens) (UniProt P55055); assay: Agonist activity at LXRbeta in human THP1 cells assessed as increase in ABCA1 mRNA expression at 1 uM by real-time quantitative RT-PCR method
T1 sequence (whole entry): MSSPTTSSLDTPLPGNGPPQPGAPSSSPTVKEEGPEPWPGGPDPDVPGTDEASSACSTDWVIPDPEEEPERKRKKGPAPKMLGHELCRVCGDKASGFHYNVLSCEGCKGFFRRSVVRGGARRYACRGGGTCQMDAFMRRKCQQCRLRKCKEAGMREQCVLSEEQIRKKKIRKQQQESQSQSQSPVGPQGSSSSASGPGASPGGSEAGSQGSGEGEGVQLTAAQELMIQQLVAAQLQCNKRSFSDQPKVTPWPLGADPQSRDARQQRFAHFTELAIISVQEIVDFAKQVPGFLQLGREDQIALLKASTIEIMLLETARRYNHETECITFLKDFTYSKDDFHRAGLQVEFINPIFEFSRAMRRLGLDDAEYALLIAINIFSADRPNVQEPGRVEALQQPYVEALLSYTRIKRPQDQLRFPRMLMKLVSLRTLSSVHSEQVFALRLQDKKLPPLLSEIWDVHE

[2] = target: T2, Retinoic acid receptor gamma (Homo sapiens) (UniProt P13631); assay: Agonist activity at GAL4-tagged RARgamma (unknown origin) expressed in HEK293 cells co-expressing CMX-beta-galactosidase at 0.3 to 30 uM incubated for 16 hrs by luciferase reporter gene assay
T2 sequence (whole entry): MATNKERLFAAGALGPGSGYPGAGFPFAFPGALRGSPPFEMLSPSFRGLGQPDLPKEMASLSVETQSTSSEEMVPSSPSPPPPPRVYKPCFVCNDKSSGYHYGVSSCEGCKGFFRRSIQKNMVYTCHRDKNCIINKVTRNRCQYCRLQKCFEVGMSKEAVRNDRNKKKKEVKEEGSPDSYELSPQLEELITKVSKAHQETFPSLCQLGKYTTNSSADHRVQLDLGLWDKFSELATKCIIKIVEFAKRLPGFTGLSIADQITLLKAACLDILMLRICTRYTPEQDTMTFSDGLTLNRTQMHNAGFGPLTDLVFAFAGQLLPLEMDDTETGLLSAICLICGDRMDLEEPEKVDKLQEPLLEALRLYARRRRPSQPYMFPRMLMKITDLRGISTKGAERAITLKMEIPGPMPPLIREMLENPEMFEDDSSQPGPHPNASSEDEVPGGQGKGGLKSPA

[3] = target: T3, Oxysterols receptor LXR-beta (Homo sapiens, UniProt P55055); assay: Agonist activity at human LXRbeta expressed in HEK293 cells co-expressing CMX-beta-galactosidase incubated for 16 hrs by luciferase reporter gene assay
T3 sequence (P55055 whole entry): T1 sequence (whole entry)

Activity [1]: Active
Activity [2]: inactive
EC50 [3]: 559 nM
SMILES: O=C1c2c(Cl)c(Cl)c(Cl)c(Cl)c2C(=O)N1c1ccccc1/C=C/c1cccs1
